In series [1] the test system is radiation-induced edema and fibrosis in the lung. The experiment in a line: Mouse model of DEARE-lung: whole thoracic lung irradiation (WTLI) followed by oral genistein suspension. The format is in vivo. As to conditions: WTLI mice. How it is done: FIG. 1A includes representative images of animal lungs stained with Masson's Trichrome. Images on the left are whole-lung, and images on the right are high magnification (10×). […] Error bars ±SEM.
Animals were treated for two, four, or six weeks.

Series [2] deals with normal lung tissue (WTLI-irradiated). The experiment in a line: A549 mouse xenograft model with WTLI: radioprotection of normal lung tissue. As to conditions: A549 xenograft mice. Format: in vivo, athymic CD1 nu/nu mice. The text has this:
FIG. 2A is an image of a mouse in which A549 cells were implanted subcutaneously, followed by treatment with 12.5 Gy of radiotherapy (RT). […] The white box indicates the path of radiation, and the circle indicates the tumor site.
Other nonclinical studies focused on protection of the lungs in the context of cancer radiotherapy. A549 lung cancer cells were implanted subcutaneously in athymic CD1 nu/nu mice. The location of the implant was specific, so that a single dose of WTLI would hit the tumor and the normal lung tissue (FIG. 2A). Mice were then administered a nanoparticulate genistein suspension or vehicle control by daily oral gavage for seven days prior to WTLI and continuing until the end of the study.

The subject of series [3] is therapy-induced pneumonitis and pulmonary fibrosis. The experiment in a line: Genistein phase 1b/2a trial in NSCLC patients on chemoradiotherapy: toxicity and adverse events. Format: in vivo, human. How it is done: FIGS. 3A and 3B are graphs plotting pulmonary adverse event incidence rates in non-small cell lung cancer (NSCLC) clinical trials.
The drug was added to patients' chemoradiotherapy regimens to reduce the incidence of therapy-induced pneumonitis and pulmonary fibrosis. […] Patients ingested the suspension once daily for one week prior to chemoradiotherapy, and also while on concurrent chemoradiotherapy for a total of six to eight weeks.

The next series relates to SARS-CoV-2. The experiment in a line: K18-hACE2 transgenic mouse model of SARS-CoV-2 infection. Format: in vivo.
The conditions of series [4]: several pharmaceutically acceptable solvents; cited from earlier work.
Series [5] concerns NF-κB, pro-inflammatory cytokines, pro-fibrotic proteins. As to conditions: cited from earlier work.
Series [6] deals with radiation-induced fibrosis. As to conditions: rat RiED model; treatment starting two hours after radiation exposure; cited from earlier work.
The mark [7] stands for this setting: daily oral gavage from 7 days before WTLI to end of study.
The mark [8] stands for this setting: K18-hACE2 Mouse Study 2, oral BID 7 d.

Consider `O=c1c(-c2ccc(O)cc2)coc2cc(O)cc(O)c12` [genistein, 5,7-dihydroxy-3-(4-hydroxyphenyl)-4H-chromen-4-one], for which the “immune infiltrate, edema and fibrosis of the lungs (histopathology and wet lung weight)” value in series [1] (daily from 24 hours after irradiation for two, four or six weeks, vs controls) was “significantly less immune infiltrate, edema, and fibrosis of the lungs”. In addition, in series [1] (treatment started 24, 72 or 120 hours (within five days) after radiation), the “levels of fibrosis (Masson's Trichrome staining, Ashcroft scoring)” value is on record as “reduction in pulmonary fibrosis”. Further, in series [2] (WTLI, vs vehicle), the “wet lung weight (indicator of pneumonitis)” value is recorded as “reduced wet lung weight”. Besides, in series [2] (setting [7]), the “congestion and cellular infiltrate, H&E” value was “reduced congestion and minimal cellular infiltrate”; the “normal lung tissue remodeling (thickening of the septal wall), H&E” value is listed as “marked reduction in normal lung tissue remodeling”. Also, in series [3] (21 NSCLC patients treated, to date, 9% in historical study), the “patients who developed pulmonary fibrosis” value is “none”. Besides, the “occurrences of pulmonary fibrosis one year later” value in series [3] (NSCLC patients, one year later) is recorded as “no occurrences of pulmonary fibrosis”. Further, the severity of dyspnea result in series [3] (NSCLC patients, vs historical trial) was “less severe”. For the same molecule, in the series on SARS-CoV-2 (setting [8]), the lung pathology result was “improved lung pathology” and the pro-inflammatory cytokine expression entry is “reduced pro-inflammatory cytokine expression”. Further, the survival entry in the series with SARS-CoV-2 (mouse, in vivo, po) was “increase in survival”. Besides, the solubility result in series [4] is listed as “low to virtually no solubility”. In addition, the “expression of NF-κB, pro-inflammatory cytokines (IL-1, IL-6, TNFα) and pro-fibrotic proteins (TGFβ, MMP-2, MMP-9, LDH)” value in series [5] was “reduce expression”. Also, the fibrosis entry in series [6] is on record as “significantly reduced fibrosis”.

The values above are taken from US20230143352A1 (Humanetics Corporation, priority 2020, published 2023).
